Data set [1] can be described thus: Solubility of compound in acetonitrile/water. Type of data set: physicochemical.
The nature of data set [2]: Stability of compound assessed as compound degradation under dark condition measured after 20 days by 1H-NMR analysis. The class given is physicochemical. The note with it: time 20 day; read-out: Drug degradation.

SMILES strings stand for the structures.

`C=CCCCCCCCCOC(=O)/C=C/c1cccc(C(C)(C)C)c1O`: in data set [1], the solubility entry is reported as “Soluble”. The degraded at 480 h in data set [2] was 6%.

These data come from ChEMBL document CHEMBL5131508, “Photoactivatable o-Hydroxycinnamic Platforms for Bioimaging and Therapeutic Release” (J Med Chem, 2022).
